# Test results as given in publication PMC9394307, “Discovery of Putative Dual Inhibitor of Tubulin and EGFR by Phenotypic Approach on LASSBio-1586 Homologs” (Pharmaceuticals, 2022).
# Where “and” joins values, the source holds several entries; their conditions need not be identical. Equal entries are not always repeated. Where two headings read alike, the source gives them in different places.
# Key:
# LoVo [1] = assay: MTT cell viability assay, LoVo; type: cell-based; settings: Homo sapiens, 48 h, value (95% CI)
# H1975 cells = assay: Cell cycle analysis by flow cytometry (Guava Muse Cell Cycle Kit); type: cell-based, human; settings: H1975, 48 h of treatment; CA-4 0.04 µM, LASSBio-1586 2.0 µM, LASSBio-1735 0.08 µM, LASSBio-2070 3.0 µM, LASSBio-2074 1.5 µM; vs DMSO 0.1%
# Procedure: Changes in the cell cycle are important aspect in tumorigenesis. Therefore, the identification of the steps related to inhibition of cell multiplication is an important process during the discovery of new antitumoral drug candidates. […] Flow cytometry was used for cell cycle analysis to estimate the percentages of a cell population in the different phases of the cell cycle. The analysis was performed using the lung cancer cell line H1975 treated with CA-4 (1, 0.04 µM), LASSBio-1586 (2, 2.0 µM), LASSBio-1735 (3, 0.08 µM), LASSBio-2070 (10, 3.0 µM) and LASSBio-2074 (11, 1.5 µM).
# Flow cytometry was applied to help elucidate the mechanism of action of the studied compounds, both to verify the cell cycle phase and to verify the action on EGFR protein kinase.
# The anti-tubulin effect was evaluated by seeding H1975, H292 and PC-9 into 6-well plates at a density of 2 × 10^5 per well. […] Cells were harvested and stained according to the protocols of The Guava Muse® Cell Cycle Kit (MCH100106) to quantitatively measure the percentage of cells in the G2/M phases of the cell cycle and the EGFR-RTK Activation Dual Detection Kit (MCH200102) (Luminex®) to measure EGFR phosphorylation in relation to total EGFR expression in the cell population, according to the manufacturer’s instructions for use in test kits using a Guava Muse® Cell Analyzer (Luminex®). Each experiment was performed at least three times independently.
# HL-60 = assay: MTT cell viability assay, HL-60; type: cell-based, human; settings: MTT, value (95% CI), read-out: CC50 (µM) (CI) HL-60
# Procedure: (§1) The cytotoxic activity of compounds 3–13 was determined based on an MTT assay against different human tumor cell lines, using LASSBio-1586 (2), LASSBio-1735 (3), CA-4 (1) and pelitinib as standards (Table 2). To determine the cytotoxic selectivity index, compounds were also evaluated toward human lymphocytes (Table 3).
# (§2) The target compounds were tested (0.0001–100 µM) for cytotoxic activity against selected human cancer cell lines, such as HL-60 (acute promyelocytic leukemia), MCF-7 (mammary adenocarcinoma), PC-3 (prostate adenocarcinoma), H1975 (non-small cell lung cancer—EGFR^L858R+T790M), PC-9 (non-small cell lung cancer—EGFR^L858R) H292 (mucoepidermoid pulmonary carcinoma—EGFR wild type), LoVo (colorectal adenocarcinoma—EGFRwild type) and GM16000 (lymphocyte). All the human cancer cell lines were purchased from Cell Bank of Rio de Janeiro—BCRJ. They were cultured in RPMI 1640 medium with 10% (v/v) FBS, 2 mM glutamine, at 37 °C in a humidified incubator containing 5% CO2.
# (§3) The cytotoxicity of the compounds was evaluated by the MTT assay. […] For lymphocytic lines, a density of 0.3 × 10^6 cells/mL was used. Afterwards they were treated with varying concentrations of the target compounds 2–12 (0.0001–100 µM), CA-4 (1) and pelitinib at 37 °C, in triplicate. The medium was incubated with 20 μL of 5 mg/mL MTT solution for 3 h in a humidified incubator containing 5% CO2 [11].
# (§4) The purple-colored formazan crystals formed in the wells were dissolved in DMSO and their absorbance was measured at 595 nm with a microplate reader (SpectraMax M5, Molecular Devices).
# PC-3 = assay: MTT cell viability assay, PC-3; type: cell-based; settings: Homo sapiens, PC-3; MTT, 72 h; value (95% CI); read-out: CC50 (µM) (CI) PC-3
# Procedure: as §1, §2
# (§5) The cytotoxicity of the compounds was evaluated by the MTT assay. The cell lines were cultured in 96 well plates for 72 h with a density of 0.1 × 10^5 cells/mL to 0.7 × 10^5 cells/mL to adherent cell lines. For lymphocytic lines, a density of 0.3 × 10^6 cells/mL was used. Afterwards they were treated with varying concentrations of the target compounds 2–12 (0.0001–100 µM), CA-4 (1) and pelitinib at 37 °C, in triplicate. The medium was incubated with 20 μL of 5 mg/mL MTT solution for 3 h in a humidified incubator containing 5% CO2 [11].
# as §4
# [2] = MTT cell viability assay, GM16000 lymphocytes; type: cell-based; settings: GM16000 lymphocyte cells (non-tumor), human lymphocytes, value (95% CI)
# Procedure: as §1
# To establish the cytotoxic selective index (SI) of LASSBio-1586 homologs, they were studied on human lymphocyte cell lines (GM16000), using the MTT assay. The SI was calculated by the ratio between the CC50 on tumor and non-tumor cell lines. Although there is no consensus, values of SI ≥ 10 is considered satisfactory to assign safety to a new cytotoxic agent. This value means that the compound is more than ten times more cytotoxic to the tumor cell line than to normal cell line.
# as §2, §5, §4
# MCF-7 = assay: MTT cell viability assay, MCF-7; type: cell-based, human; settings: MTT, 72 h, value (95% CI), read-out: CC50 (µM) (CI) MCF-7
# Procedure: as §1, §2, §5, §4
# H1975 = assay: MTT cell viability assay, H1975; type: cell-based, human; settings: Homo sapiens, MTT, value (95% CI), read-out: CC50 (µM) (CI) H1975
# Procedure: as §1, §2, §3, §4
# LoVo [3] = assay: MTT cell viability assay, LoVo; type: cell-based; settings: Homo sapiens, MTT, 72 h, value (95% CI), read-out: CC50 (µM) (CI) LoVo
# Procedure: as §1, §2, §5, §4
# [4] = MTT cell viability assay, GM16000 lymphocytes; type: cell-based; settings: GM16000 lymphocyte cells (non-tumor), human lymphocytes, value (95% CI); remark: listed apart in the source
# PC-9 = assay: MTT cell viability assay, PC-9; type: cell-based, human; settings: Homo sapiens, MTT, value (95% CI), read-out: CC50 (µM) (CI) PC-9
# Procedure: as §1, §2, §3, §4
# H292 = assay: MTT cell viability assay, H292; type: cell-based, human; settings: Homo sapiens, MTT, value (95% CI), read-out: CC50 (µM) (CI) H292
# Procedure: as §1, §2, §3, §4
# [5] = Homo sapiens, HL-60, 48 h, 48 h
# [6] = Homo sapiens, HL-60, 72 h, 72 h
Structure (SMILES),CC50 (LoVo [1]) [µM],melting point,"cell cycle distribution (G0/G1, S, G2/M) (H1975 cells)",CC50 (HL-60; [5]) [µM],CC50 (HL-60; [6]) [µM],CC50 (PC-3) [µM],CC50 at 72 h [2] [µM],"CC50 (MCF-7; Homo sapiens, MCF7, 72 h) [µM]",CC50 (MCF-7) [µM],"CC50 (H1975; NCI-H1975, 48 h, 48 h) [µM]","CC50 (H1975; NCI-H1975, 72 h, 72 h) [µM]",CC50 (LoVo [3]) [µM],CC50 at 48 h [4] [µM],"CC50 (PC-9; PC-9, 48 h, 48 h) [µM]","CC50 (PC-9; PC-9, 72 h, 72 h) [µM]","CC50 (H292; NCI-H292, 48 h, 48 h) [µM]","CC50 (H292; NCI-H292, 72 h, 72 h) [µM]",CC50 (HL-60; 72 h) [µM]
"COc1cc(C(=O)N(C)/N=C/c2ccccc2)cc(OC)c1OC [LASSBio-1735 (3), (E)-N’-benzylidene-3,4,5-trimethoxy-N-methylbenzohydrazide]",0.479,110 °C and 110.56 °C,increased cells in phase G2/M,8.77,0.039,0.201,0.131,0.28,0.276,0.096,0.079,0.149,0.059,1.34,0.09,0.152,0.25,–
"CCOC(=O)CN(/N=C/c1ccccc1)C(=O)c1cc(OC)c(OC)c(OC)c1 [LASSBio-2074 (11), Ethyl (E)-N-(benzylideneamino)-N-(3,4,5-trimethoxybenzoyl)glycinate]",2.64,91 to 92 °C and 91.67 °C,increased cells in phase G2/M,5.69,0.126,1.36,4.19,0.869,–,4.83,1.2,0.106,3.91,1.41,0.202,0.593,0.75,–
"COc1cc(C(=O)N/N=C/c2ccccc2)cc(OC)c1OC [LASSBio-1586 (2), (E)-N’-benzylidene-3,4,5-trimetoxybenzohydrazide]",1.72,–,increased cells in phase G2/M,3.59,2.08,1.62,1.51,7.53,–,2.02,1.57,0.039,0.763,0.94,0.587,2.19,1.4,2.13
"COc1cc(C(=O)N(Cc2ccccc2)/N=C/c2ccccc2)cc(OC)c1OC [LASSBio-2070 (10), (E)-N-benzyl-N’-benzylidene-3,4,5-trimethoxybenzohydrazide]",2.12,130 to 131 °C and 130.12 °C,increased cells in phase G2/M,6.29,0.172,0.361,1.05,1.7,–,0.903,2.79,0.208,0.935,0.244,0.337,0.147,0.883,–
